Square brackets hold non-standard residues; d marks the D form. Ends that are not written are not given here.
Test: Inhibition of food intake, subcutaneous injection to fasted rats
Format: in vivo, Wistar rats
Experimental: Animals: All animal procedures were approved by the British Home Office Animals (Scientific Procedures) Act 1986 (Project License number 70/5516).
Study protocol: C57BL/6 mice (20-35 g) were injected with the peptide under investigation following a 20-hour fast. Wistar rats were injected following a 24-hour fast. […] A pre-weighed quantity of chow was presented immediately after injection.

**Q.** Which “Mean cumulative food intake in comparison to saline control” value (“Mean cumulative food intake” for short) (5 nmoles/kg, over 48 hours) does the source give for “D-His Ala Asp Gly Thr Phe Thr Ser Asp Tyr Ser Lys Tyr Leu Glu Gln Glu Ile Val Lys Tyr Phe Ile Gln Trp Leu Lys Asn Gly Gly Pro Ser Lys Asn Asn Ile Ala Lys ([dH]ADGTFTSDYSKYLEQEIVKYFIQWLKNGGPSKNNIAK) [PEPTIDE NO: 202]” here?
**A.** The value was “potent and long acting suppression of food intake”.

**Q.** And the “food intake in comparison to control group treated with native oxyntomodulin” value (shortened to “food intake … with native oxyntomodulin”) (5 nmoles/kg, over 48 hours)?
**A.** The value was “lower than in the control group treated with native oxyntomodulin”.

**Q.** For “D-His Ala Asp Gly Thr Phe Thr Ser Asp Tyr Ser Lys Tyr Leu Glu Gln Glu Ile Val Lys Tyr Phe Leu Gln Trp Leu Lys Asn Ala Gly Pro Ser Lys Asn Asn Ile Ala ([dH]ADGTFTSDYSKYLEQEIVKYFLQWLKNAGPSKNNIA) [PEPTIDE NO: 184]”, which “Mean cumulative food intake” value (3 nmoles/kg, over 24 hours) is on record?
**A.** Its value is “potent and long acting suppression of food intake”.

**Q.** And the “food intake … with native oxyntomodulin” value (3 nmoles/kg, over 24 hours)?
**A.** Its value is “lower than in the control group treated with native oxyntomodulin”.

**Q.** With “D-His Ala Asp Gly Thr Phe Thr Ser Asp Tyr Ser Lys Tyr Leu Glu Gln Glu Leu Val Lys Tyr Phe Ile Gln Trp Leu Lys Asn Ala Gly Pro Ser Lys Asn Asn Ile Ala ([dH]ADGTFTSDYSKYLEQELVKYFIQWLKNAGPSKNNIA) [PEPTIDE NO: 178]” as the substance, how does the “Mean cumulative food intake” value (10 nmoles/kg, over 24 hours) read?
**A.** Its value is “potent and long acting suppression of food intake”.

**Q.** And the “food intake … with native oxyntomodulin” value (10 nmoles/kg, over 24 hours)?
**A.** Its value is “lower than in the control group treated with native oxyntomodulin”.

**Q.** What does the source list for “D-His Ala Asp Gly Thr Phe Thr Ser Asp Tyr Ser Lys Tyr Leu Glu Gln Glu Leu Val Lys Tyr Phe Ile Gln Trp Leu Lys Asn Gly Gly Pro Ser Lys Asn Asn Ile Ala Lys ([dH]ADGTFTSDYSKYLEQELVKYFIQWLKNGGPSKNNIAK) [PEPTIDE NO: 205]”?
**A.** Mean cumulative food intake in comparison to saline control (5 nmoles/kg, over 32 hours): potent and long acting suppression of food intake; food intake in comparison to control group treated with native oxyntomodulin (5 nmoles/kg, over 32 hours): lower than in the control group treated with native oxyntomodulin

**Q.** With “D-His Ala Asp Gly Thr Phe Thr Ser Asp Tyr Ser Lys Tyr Leu Glu Gln Glu Leu Val Lys Tyr Phe Leu Gln Trp Leu Lys Asn Ala Gly Pro Ser Lys Asn Asn Ile Ala ([dH]ADGTFTSDYSKYLEQELVKYFLQWLKNAGPSKNNIA) [PEPTIDE NO: 172]” as the substance, how does the “Mean cumulative food intake” value (3 nmoles/kg, over 24 hours) read?
**A.** The value was “potent and long acting suppression of food intake”.

**Q.** And the “food intake … with native oxyntomodulin” value (3 nmoles/kg, over 24 hours)?
**A.** The value was “lower than in the control group treated with native oxyntomodulin”.

**Q.** What does the source list for “D-His Ala Asp Gly Thr Phe Thr Ser Asp Tyr Ser Lys Tyr Leu Glu Glu Glu Ile Val Lys Tyr Phe Ile Gln Trp Leu Lys Asn Gly Gly Pro Ser Lys Asn Asn Ile Ala ([dH]ADGTFTSDYSKYLEEEIVKYFIQWLKNGGPSKNNIA) [PEPTIDE NO: 167]”?
**A.** food intake suppression continues for (5 nmoles/kg, 32 hours observed): ≥ 32 h; Mean cumulative food intake in comparison to saline control (5 nmoles/kg, over 32 hours): potent and long acting suppression of food intake; food intake in comparison to control group treated with native oxyntomodulin (5 nmoles/kg, over 32 hours): lower than in the control group treated with native oxyntomodulin

**Q.** Which results are given for “D-His Ala Asp Gly Thr Phe Thr Ser Asp Tyr Ser Lys Tyr Leu Glu Glu Glu Ile Val Lys Tyr Phe Ile Gln Trp Leu Lys Asn Gly Gly Pro Ser Lys Asn Asn Ile Ala Lys ([dH]ADGTFTSDYSKYLEEEIVKYFIQWLKNGGPSKNNIAK) [PEPTIDE NO: 201]”?
**A.** Mean cumulative food intake in comparison to saline control (5 nmoles/kg, over 48 hours): potent and long acting suppression of food intake; food intake in comparison to control group treated with native oxyntomodulin (5 nmoles/kg, over 48 hours): lower than in the control group treated with native oxyntomodulin

Source: patent publication US8101576B2, “Compounds and their effects on feeding behaviour” (priority 2006, dated 2012)
